Measured values as given in patent publication US20250171437A1 (Agios Pharmaceuticals,Inc., priority 2022, published 2025).

What follows are molecules tested against T1, human PAH with the R408W mutation (A375 R408W cells) (Homo sapiens, UniProt P00439, R408W) (assay: Cell Based Phenylalanine Flux Assay). Settings: A375 R408W cells; 24 hrs with compound, then 20 μM sepiapterin and 800 μM 13C9,15N-Phenylalanine for 4 hours; 13C-Tyrosine by LC-MS; average where tested multiple times.
T1 construct: expressed in transfected cells
T1 sequence (P00439 1-452 R408W): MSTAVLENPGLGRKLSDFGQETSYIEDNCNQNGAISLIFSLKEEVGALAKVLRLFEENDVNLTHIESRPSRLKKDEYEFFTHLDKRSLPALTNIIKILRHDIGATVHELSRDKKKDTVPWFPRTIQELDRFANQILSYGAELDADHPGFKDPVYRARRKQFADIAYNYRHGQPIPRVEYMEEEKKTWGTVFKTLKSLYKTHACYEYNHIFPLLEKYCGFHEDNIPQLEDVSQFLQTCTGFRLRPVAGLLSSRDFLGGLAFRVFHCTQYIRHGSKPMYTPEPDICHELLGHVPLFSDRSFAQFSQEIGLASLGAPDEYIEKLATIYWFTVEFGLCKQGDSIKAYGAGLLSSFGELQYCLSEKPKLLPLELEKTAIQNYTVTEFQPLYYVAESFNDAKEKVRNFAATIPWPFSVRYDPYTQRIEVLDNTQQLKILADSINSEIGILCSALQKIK
Procedure: Cells expressing R408W PAH were made by transducing A375 cells with lentivirus encoding human PAH with the R408W mutation in pLVX-Puro, then selecting with puromycin until stable cell lines were generated. A375 R408W cells were seeded into 96 well plates in DMEM+10% FBS at a density of 40,000 cells/well one hour prior to compound addition. Compounds were resuspended in DMSO, and 2-fold serial dilutions were performed to generate a 10-point dose curve. Compounds were added to plated cells in a total volume of 100 μl, and a final DMSO concentration of 0.5%. Each compound was tested in duplicate. Following compound addition, cells were placed in a 5% CO2, 37° C. tissue culture incubator for 24 hrs. After the incubation period, 20 μM sepiapterin and 800 μM 13C9,15N-Phenylalanine were added. After 4 hours, cell media was removed. An aliquot of 10 μl of cell media was combined with 200 μl of extraction buffer (80% acetonitrile/20% H2O) for each well. Determination of ^13C-Tyrosine concentration was assessed by liquid chromatography mass spectrometry.
Specific compounds disclosed herein were tested in the foregoing assay and they were determined to have an AC50 according to the following scores: (A) less than or equal to 0.500 μM, (B) greater than 0.500 and less than […], (C) greater than or equal to 1.000 and less than 5.000 μM, (D) greater than or equal to 5.000 μM, (E) no fit, and (NT) not tested, as shown below. Where a compound was tested multiple times, the average value of the tests is reported.

AC50	Compound
1 to 5 µM	O=C(c1cnco1)N1CCc2[nH]cnc2[C@@H]1c1nc2ccccc2o1 [Example 548, (R)-(4-(benzo[d]oxazol-2-yl)-6,7-dihydro-1H-imidazo[4,5-c]pyridin-5(4H)-yl)(oxazol-5-yl)methanone]
0.5 to 1 µM	O=C(c1ccnn1C(F)(F)F)N1CCc2[nH]cnc2[C@H]1c1nc2cccc(F)c2o1 [Example 289, (S)-(4-(7-fluorobenzo[d]oxazol-2-yl)-6,7-dihydro-1H-imidazo[4,5-c]pyridin-5(4H)-yl)(1-(trifluoromethyl)-1H-pyrazol-5-yl)methanone]
≤ 0.5 µM	C[C@H](O)c1nc(C(F)F)c(C(=O)N2CCc3[nH]cnc3[C@H]2c2nc3cccc(F)c3o2)o1 [Example 243, (4-(difluoromethyl)-2-((S)-1-hydroxyethyl)oxazol-5-yl)((S)-4-(7-fluorobenzo[d]oxazol-2-yl)-6,7-dihydro-1H-imidazo[4,5-c]pyridin-5(4H)-yl)methanone]
≤ 0.5 µM	C[C@@H](O)c1nc(C(F)F)c(C(=O)N2CCc3[nH]cnc3[C@H]2c2nc3cccc(F)c3o2)o1 [Example 245, (4-(difluoromethyl)-2-((R)-1-hydroxyethyl)oxazol-5-yl)((S)-4-(7-fluorobenzo[d]oxazol-2-yl)-6,7-dihydro-1H-imidazo[4,5-c]pyridin-5(4H)-yl)methanone]
1 to 5 µM	Cc1ccc(F)c2nc([C@H]3c4nc[nH]c4CCN3C(=O)c3oc(C(C)(C)O)nc3C(F)F)oc12 [Example 724, (R)-(4-(difluoromethyl)-2-(2-hydroxypropan-2-yl)oxazol-5-yl)(4-(4-fluoro-7-methylbenzo[d]oxazol-2-yl)-6,7-dihydro-1H-imidazo[4,5-c]pyridin-5(4H)-yl)methanone]
≤ 0.5 µM	Cc1nc(-c2ccccn2)oc1C(=O)N1CCc2[nH]cnc2[C@H]1c1nc2cccc(F)c2o1 [Example 594, (S)-(4-(7-fluorobenzo[d]oxazol-2-yl)-6,7-dihydro-1H-imidazo[4,5-c]pyridin-5(4H)-yl)(4-methyl-2-(pyridin-2-yl)oxazol-5-yl)methanone]
≤ 0.5 µM	CC(C)(O)c1nc(C(F)F)c(C(=O)N2CCc3[nH]cnc3[C@H]2c2nc3cccc(OC(F)(F)F)c3o2)o1 [Example 529, (S)-(4-(difluoromethyl)-2-(2-hydroxypropan-2-yl)oxazol-5-yl)(4-(7-(trifluoromethoxy)benzo[d]oxazol-2-yl)-6,7-dihydro-1H-imidazo[4,5-c]pyridin-5(4H)-yl)methanone]
0.5 to 1 µM	Cn1cc(-c2nnc(C(=O)N3CCc4[nH]cnc4[C@H]3c3nc4cccc(F)c4o3)o2)cn1 [Example 191, (S)-(4-(7-fluorobenzo[d]oxazol-2-yl)-6,7-dihydro-1H-imidazo[4,5-c]pyridin-5(4H)-yl)(5-(1-methyl-1H-pyrazol-4-yl)-1,3,4-oxadiazol-2-yl)methanone]
≤ 0.5 µM	O=C(c1nnc(-c2cnn(C(F)F)c2)o1)N1CCc2[nH]cnc2[C@H]1c1nc2cccc(F)c2o1 [Example 875, (S)-(5-(1-(difluoromethyl)-1H-pyrazol-4-yl)-1,3,4-oxadiazol-2-yl)(4-(7-fluorobenzo[d]oxazol-2-yl)-6,7-dihydro-1H-imidazo[4,5-c]pyridin-5(4H)-yl)methanone]
1 to 5 µM	Cc1nc([C@@H](C)O)oc1C(=O)N1CCc2[nH]cnc2[C@@H]1c1nc2cccc(F)c2o1 [Example 218, ((R)-4-(7-fluorobenzo[d]oxazol-2-yl)-6,7-dihydro-1H-imidazo[4,5-c]pyridin-5(4H)-yl)(2-((R)-1-hydroxyethyl)-4-methyloxazol-5-yl)methanone]
1 to 5 µM	Cc1ncoc1C(=O)N1Cc2[nH]cnc2[C@@H]1c1nc2ccccc2o1 [Example 942, (R)-(4-(benzo[d]oxazol-2-yl)-4,6-dihydropyrrolo[3,4-d]imidazol-5(1H)-yl)(4-methyloxazol-5-yl)methanone]
≤ 0.5 µM	O=C(c1ocnc1C(F)F)N1CCc2[nH]cnc2[C@H]1c1nc2cccc(C(F)(F)F)c2o1 [Example 493, (S)-(4-(difluoromethyl)oxazol-5-yl)(4-(7-(trifluoromethyl)benzo[d]oxazol-2-yl)-6,7-dihydro-1H-imidazo[4,5-c]pyridin-5(4H)-yl)methanone]
≤ 0.5 µM	O=C(c1oc(-c2ccncn2)nc1C(F)F)N1CCc2[nH]cnc2[C@H]1c1nc2cccc(F)c2o1 [Example 773, (S)-(4-(difluoromethyl)-2-(pyrimidin-4-yl)oxazol-5-yl)(4-(7-fluorobenzo[d]oxazol-2-yl)-6,7-dihydro-1H-imidazo[4,5-c]pyridin-5(4H)-yl)methanone]
≤ 0.5 µM	Cn1cc(-c2nnc(C(=O)N3CCc4[nH]cnc4[C@H]3c3nc4c(F)ccc(F)c4o3)o2)cn1 [Example 518, (S)-(4-(4,7-difluorobenzo[d]oxazol-2-yl)-6,7-dihydro-1H-imidazo[4,5-c]pyridin-5(4H)-yl)(5-(1-methyl-1H-pyrazol-4-yl)-1,3,4-oxadiazol-2-yl)methanone]
1 to 5 µM	COc1ccc2c(C(=O)N3CCc4[nH]cnc4[C@@H]3c3nc4cccc(F)c4o3)cnn2c1 [Example 326, (R)-(4-(7-fluorobenzo[d]oxazol-2-yl)-6,7-dihydro-1H-imidazo[4,5-c]pyridin-5(4H)-yl)(6-methoxypyrazolo[1,5-a]pyridin-3-yl)methanone]
0.5 to 1 µM	O=C(c1ocnc1C(F)(F)F)N1CCc2[nH]cnc2[C@@H]1c1nc2ccccc2o1 [Example 798, (R)-(4-(benzo[d]oxazol-2-yl)-6,7-dihydro-1H-imidazo[4,5-c]pyridin-5(4H)-yl)(4-(trifluoromethyl)oxazol-5-yl)methanone]
0.5 to 1 µM	Cc1cccc2nc([C@@H]3c4nc[nH]c4CCN3C(=O)c3cnco3)oc12 [Example 611, (S)-(4-(7-methylbenzo[d]oxazol-2-yl)-6,7-dihydro-1H-imidazo[4,5-c]pyridin-5(4H)-yl)(oxazol-5-yl)methanone]
≤ 0.5 µM	O=C(c1ocnc1C1CC1)N1CCc2[nH]cnc2[C@H]1c1nc2cc(F)ccc2o1 [Example 41, (S)-(4-cyclopropyloxazol-5-yl)(4-(5-fluorobenzo[d]oxazol-2-yl)-6,7-dihydro-1H-imidazo[4,5-c]pyridin-5(4H)-yl)methanone]
≤ 0.5 µM	CC(C)(O)c1nc(C(F)F)c(C(=O)N2CCc3[nH]cnc3[C@H]2c2nc3cccc(Cl)c3o2)o1 [Example 423, (S)-(4-(7-chlorobenzo[d]oxazol-2-yl)-6,7-dihydro-1H-imidazo[4,5-c]pyridin-5(4H)-yl)(4-(difluoromethyl)-2-(2-hydroxypropan-2-yl)oxazol-5-yl)methanone]
0.5 to 1 µM	O=C(CCc1nccs1)N1CCc2[nH]cnc2[C@H]1c1nc2ccccc2o1 [Example 913, (S)-1-(4-(benzo[d]oxazol-2-yl)-6,7-dihydro-1H-imidazo[4,5-c]pyridin-5(4H)-yl)-3-(thiazol-2-yl)propan-1-one]

Same assay, conditions: A375 cells expressing R408W PAH; 24 hrs with compound, then 20 μM sepiapterin and 800 μM 13C9,15N-Phenylalanine for 4 hours; 13C-Tyrosine by LC-MS; average where tested multiple times

AC50	Compound
≥ 5 µM	CC1CN(C(=O)c2oc(C(C)(C)O)nc2C(F)F)C(c2nc3cc(F)ccc3o2)c2nc[nH]c21 (stereo not shown)
1 to 5 µM	O=C(c1cnn2cc(CN3CC(F)C3)ccc12)N1CCc2[nH]cnc2C1c1nc2cc(F)ccc2o1 (stereo not shown)
1 to 5 µM	CC(C)(O)c1ncc(C(=O)N2CCc3[nH]cnc3C2c2nc3ccc(F)c(F)c3o2)o1 (stereo not shown)
1 to 5 µM	O=C(c1ccnn1-c1ccccn1)N1CCc2[nH]cnc2C1c1nc2ccccc2o1 (stereo not shown)
≥ 5 µM	O=C(c1cnn2cc(OCCn3cccn3)ccc12)N1CCc2[nH]cnc2C1c1nc2cc(F)ccc2o1 (stereo not shown)
1 to 5 µM	CCOC(=O)N1CCN(c2ccc3c(C(=O)N4CCc5[nH]cnc5C4c4nc5cc(F)ccc5o4)cnn3c2)CC1 (stereo not shown)
1 to 5 µM	O=C(c1nnc(C2CC(F)(F)C2)o1)N1CCc2[nH]cnc2C1c1nc2cc(F)ccc2o1 (stereo not shown)
1 to 5 µM	O=C(c1nnc(-c2ncccc2F)o1)N1CCc2[nH]cnc2C1c1nc2cc(C(F)(F)F)ccc2o1 (stereo not shown)
1 to 5 µM	O=C(c1nnc(-c2cn[nH]c2)o1)N1CCc2[nH]cnc2C1c1nc2ccc(F)cc2o1 (stereo not shown)
1 to 5 µM	CC(C)(O)c1cc(C(=O)N2CCc3[nH]cnc3C2c2nc3cc(F)ccc3o2)on1 (stereo not shown)
1 to 5 µM	CC(C)(O)c1nnc(C(=O)N2CCc3[nH]cnc3C2c2nc3cc(F)ccc3o2)o1 (stereo not shown)
1 to 5 µM	CC(C)(O)c1cc(C(=O)N2CCc3[nH]cnc3C2c2nc3cccc(F)c3o2)on1 (stereo not shown)
1 to 5 µM	Cc1nc(C(=O)N2CCc3[nH]cnc3C2c2nc3ccccc3o2)n(C)n1 (stereo not shown)
1 to 5 µM	O=C(C1CN(CC(F)(F)F)C1)N1CCc2[nH]cnc2C1c1nc2cc(F)ccc2o1 (stereo not shown)
